Reference: paper PMC12866179, “Oxidized MIF is an Alzheimer’s disease drug target relaying external risk factors to tau pathology” (Cell Reports Medicine, 2025)

Columns and labels:
in vivo = assay: in vivo; design: species or system Sprague Dawley rats
Method: Studies investigating the pharmacokinetics of PAV-617 were performed by Vipragen Biosciences Inc in […]. The animal care committee approval numbers for the studies are: M-Tox: VIP/IAEC/41/2016 and PK: VIP/IAEC/316/2021. […]
(C) Pharmacokinetic assessment of PAV-61 7 in Sprague Da wley ra ts (S D). Ma le SD ra ts (n=4) we re dosed via three ro utes na me ly intravenous (IV )- 1 mg/kg, (IP )- 5 mg/kg an d per ora l (P O)- 5 mg/kg. Plasma concentration wa s anal yzed at di ff e ren t time intervals. Pharmacokinetic pa ra met e rs we re de t erm ine d usi ng Win No nlin . Cma x (p ea k pl asma concentration) achieved through IV wa s 12 8 ng / mL, IP wa s 36 2. 6 ng / mL an d PO wa s 15 1. 1 ng / mL at Tmax (time of pe ak concentration obser ved) 1 h, 0. 5 h an d 4 h respectively. Co mpo un d PAV-61 7 ha s mo de rate t1/2 (ter min al ha lf-life ) through IV- 7. 8 h, IP- 7 h an d PO- 3. 3 h. CL (steady-state clearance) wa s found to be mo de rate- 20 mL /m in/kg which wa s 2. 7 5 times lo wer than ra t liver bl oo d flow . Vz (volum e of di str ibuti on) wa s found to be hi gh- 12 . 7 L/kg an d F (fracti on bi oavailabi lity) wa s found to be ver y go od through IP- 80 % an d mo de rate through PO- 41 % . […]

HSV-1 = assay: Virus plaque assay in HSV-1-infected Vero cells; type: cell-based, HSV-1 KOS strain; conditions: Human alphaherpesvirus 1, read-out: IC50, HSV-1 replication, plaque assay
Method: Virus titer determination was carried out in 25-cm^2 flasks or 6-well plates with confluent Vero cells. The virus stock was serially diluted in Medium 199. 1 mL of each of the dilutions was added to the Vero cells in duplicates and incubated for 2h. Then the inoculum was aspirated and DMEM supplemented with 5% NBCS and 7.5 μg/mL human immunoglobulin (Sigma) was added. After two days the cells were washed twice with PBS and fixed with MeOH for 5 min at RT. Then 1:10 diluted KaryoMax Giemsa stain solution (Gibco) was added to the cells and incubated for 20 min at RT. Following washing with water the plaques were counted under the microscope and the titer was calculated. 4x10^5 Vero cells, 8x10^5 SH-SY5Y or 2x10^6 differentiated LUHMES (differentiation day 6) cells were seeded into 12-well plates. After 24h the cells were treated with compounds (as indicated in the figures) and after 1h they were infected with HSV-1 applying MOIs as described in the figures. After 20h (or at indicated time points) cells were either washed twice with PBS, then lysed in cold PBS/1% NP40 including the cOmplete EDTA-free protease inhibitor cocktail (Roche) and phosphatase inhibitor cocktail (Sigma) or virus was released by freeze-thawing and ultrasonic treatment for analysis in viral plaque assay (see above).

[1] = male, Sprague-Dawley, rat, ip, 5 mg/kg
[2] = male, Sprague-Dawley, rat, iv, 1 mg/kg
[3] = male, Sprague-Dawley, rat, po, 5 mg/kg

Row | Structure (SMILES) | CL, times lower than rat liver blood flow (in vivo; male, Sprague-Dawley) | Vd (in vivo; male, Sprague-Dawley, rat) [L/kg] | Tmax (in vivo; [1]) [h] | bioavailability (in vivo; [1]) [%] | half-life (in vivo; [1]) [h] | Tmax (in vivo; [2]) [h] | half-life (in vivo; [2]) [h] | Tmax (in vivo; [3]) [h] | bioavailability (in vivo; [3]) [%] | half-life (in vivo; [3]) [h] | bioavailability following intraperitoneal administration (in vivo; rat, ip) | Cmax (peak plasma concentration), IP (in vivo; rat, ip, 5 mg/kg) | Cmax (peak plasma concentration), IV (in vivo; rat, iv, 1 mg/kg) | Cmax (peak plasma concentration), PO (in vivo; rat, po, 5 mg/kg) | IC50 (HSV-1) [µM]
1 | [I-].c1cc2nc3ccc(N4CCCC4)cc3[s+]c2cc1N1CCCC1 [PAV-617, 3,7-Di(pyrrolidine-1-yl)phenothiazine-5-ium iodide] | 2. 7 5 times | 12.7 | 0.5 | 80 | 7 | 1 | 7.8 | 4 | 41 | 3.3 | high bioavailability | 36 2. 6 ng/mL | 12 8 ng/mL | 15 1. 1 ng/mL | 
2 | CCc1cc(N2CCCC2)cc2[s+]c3cc(N4CCCC4)cc(C)c3nc12.[I-] [PAV-174, 3,7-Di(pyrrolidine-1-yl) 1-ethyl-9-methyl-phenothiazin-5-ium iodide] |  |  |  |  |  |  |  |  |  |  |  |  |  |  | 0.034
